“And” between values parts separate entries of the source, which are not always exact repeats. Equal values may be shown once.
Assays:
ELMSAN1 = assay: Chemoproteomic competition pulldown assay (co-competed MiDAC partner); assay type: binding
Protocol: (§1) To identify proteins directly bound by lipoic acid, we employed a chemoproteomic competition assay. Briefly, (R/S)-LA was immobilized on sepharose beads via an amidation reaction to form an affinity matrix (abbreviated as iL; Fig. 1a). This affinity matrix can be incubated with cell lysate to pull down potential LA or LM target proteins and identify these targets via bottom-up proteomics. In a competition assay, free LA or LM were incubated with lysate at different concentrations before pulling down and quantifying target proteins. […] (Fig. 1b, see “Methods” for details). […] The lysate buffer used in this assay contains 1 mM DTT to mimic the intracellular reductive milieu and to reduce lipoic acid and LM. […] Additional competition assays performed in lung adenocarcinoma cell A549 lysate also identified HDAC1, HDAC2, and HDAC6 as targets (Supplementary Fig. 1b). Amongst the three cell lines tested, HDACs were the only confidently identified targets across the 1500–3000 proteins quantified in these assays. […] We validated the results by analogous pulldown competition assays using two other affinity matrices prepared via the immobilization of either the HDAC inhibitor Quisinostat (iQ) and an analog of the class IIa HDAC inhibitor Bürli’s 31[14] (iC)[12]. We have previously shown that these affinity matrices specifically bind to the active sites of HDACs and have used them for HDACi selectivity profiling. Indeed, binding of (R/S)-LA and (R/S)-LM to HDAC1, HDAC2, HDAC3, HDAC6, and, to a lesser extent, HDAC8 was confirmed in these assays (Supplementary Fig. 1c, d). No binding to class IIa HDACs or the recently discovered common HDAC inhibitor off-target MBLAC2 was observed (Supplementary Fig. 1e)[12]. […] This observation might reflect electrostatic repulsion between the HDAC10 active site gate-keeper glutamic acid residues[15],[16] and the terminal carboxylic acid of LA.
(§2) To assess the degree of protein depletion from lysates by the affinity matrix, a second pulldown (PDPD) with fresh beads was performed using the unbound protein fraction from the vehicle control flow through. The beads were washed (1 × 1 mL of lysis buffer without inhibitors and only 0.4% Igepal, 2 × 2 mL of lysis buffer without inhibitors and only 0.2% Igepal), and captured proteins were denatured with 8 M urea buffer, alkylated with 55 mM chloroacetamide and digested with Trypsin according to standard procedures. The resulting peptides were desalted on a C18 filter plate (Sep-Pak® tC18 µElution Plate, Waters), vacuum dried, and stored at −20 °C until LC–MSMS measurement.
(§3) For the competition assays, relative binding was calculated based on the protein intensity ratio to the DMSO control for every single inhibitor concentration. EC50 values were derived from a four-parameter log-logistic regression with variable slope (constrain: bottom > 0). The obtained EC50 values were multiplied with a protein-dependent correction factor (cf), resulting in the apparent Kd value (Kd^app). The correction factor is determined by calculating the ratio of the protein intensity of two consecutive pulldowns of the vehicle control sample[13]. Targets of the inhibitors were annotated manually according to published procedures[12],[46],[47]. […] Additionally, the number of unique peptides and MSMS counts per condition were taken into account. Positive target binding across several independent experiments performed with different cell lysates further substantiated our confidence for a true positive drug-target binding event.

DNTTIP1 = assay: as above; assay type: binding
Protocol: as §1, §2, §3

HDAC3/NcoR2 complex = target: T1, HDAC3/NcoR2 complex (Homo sapiens, UniProt O15379); assay: HDAC-Glo assay; assay type: biochemical; conditions: for HDCA3 relative activity: sheet S2b
T1 construct: purchased BPS Bioscience 50003
T1 sequence (O15379 whole entry): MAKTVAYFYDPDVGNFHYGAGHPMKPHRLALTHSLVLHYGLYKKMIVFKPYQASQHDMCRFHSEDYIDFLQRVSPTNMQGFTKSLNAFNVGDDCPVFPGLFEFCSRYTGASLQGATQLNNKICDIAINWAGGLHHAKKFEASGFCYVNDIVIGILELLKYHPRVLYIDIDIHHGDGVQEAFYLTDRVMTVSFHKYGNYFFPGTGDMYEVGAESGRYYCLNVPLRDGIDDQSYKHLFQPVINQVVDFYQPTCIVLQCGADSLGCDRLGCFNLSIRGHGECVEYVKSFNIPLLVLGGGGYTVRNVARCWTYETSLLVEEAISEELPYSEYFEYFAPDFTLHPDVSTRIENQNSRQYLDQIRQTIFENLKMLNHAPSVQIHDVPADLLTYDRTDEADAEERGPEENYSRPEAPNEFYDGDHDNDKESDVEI
T1 sequence (Q9Y618 395-489 partner limits assumed): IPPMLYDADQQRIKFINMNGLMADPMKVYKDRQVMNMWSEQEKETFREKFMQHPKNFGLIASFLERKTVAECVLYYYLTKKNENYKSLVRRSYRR
Protocol: To validate the inhibition of HDACs by LA and LM and elaborate on the structure-activity relationship (SAR) of enantiomers as well as oxidized versus reduced forms of the molecules, we performed enzyme activity assays for recombinant HDAC1,2,3,6,8 as well as FRET-based binding assay for recombinant HDAC10.
The experiments were performed according to ref. [48]. […] Drug dosing was performed with a D300e Digital Dispenser (Tecan). HDACs (7 ng/mL for HDAC1, 25 ng/mL for HDAC2, 200 ng/mL for HDAC3/Ncor2 complex, 100 ng/mL for HDAC6, 200 ng/mL for HDAC8) and inhibitors were incubated together at room temperature (RT) for 30 min. After the addition of the HDAC-Glo™ I/II reagent, plates were shaken (800 rpm orbital shaker, 30 s), centrifuged (300 g, 1 min), and incubated at RT for 30 min. Luminescence was detected with a CLARIOstar (BMG Labtech) plate reader.

[1] = target: HDACs (HDAC1, HDAC2, HDAC6); assay: Chemoproteomic competition pulldown assay (HDAC panel); assay type: binding; conditions: iL, SW620 lysate, 1 mM DTT; range over HDAC1, HDAC2, HDAC6; read-out: affinities (Kd app)
Protocol: as §1
as §2, with “The resulting peptides were desalted on a C18 filter plate (Sep-Pak® tC18 µElution Plate, Waters), vacuum dried, and stored at −20 °C until LC–MSMS measurement.” left out
For the competition assays, relative binding was calculated based on the protein intensity ratio to the DMSO control for every single inhibitor concentration. […] The correction factor is determined by calculating the ratio of the protein intensity of two consecutive pulldowns of the vehicle control sample[13]. […]

MIER1 = assay: Chemoproteomic competition pulldown assay (HDAC interactor); assay type: binding; conditions: iQ, SW620 lysate
Protocol: as §1, §2, §3

[2] = iL, MV4-11 lysate, log10 M -3.52288
[3] = iL, MV4-11 lysate, log10 M -4.52288
[4] = iL, MV4-11 lysate, log10 M -5.52288
[5] = iL, MV4-11 lysate, log10 M -6.52288
[6] = iQ, SW620 lysate, log10 M -3.52288
[7] = iQ, SW620 lysate, log10 M -4.52288
[8] = iQ, SW620 lysate, log10 M -5.52288
[9] = iQ, SW620 lysate, log10 M -6.52288

relative binding vs DMSO (ELMSAN1; [2]): 0.05487
relative binding vs DMSO (ELMSAN1; iL, MV4-11 lysate, log10 M -4): 0.06564
relative binding vs DMSO (ELMSAN1; [3]): 0.1508
relative binding vs DMSO (ELMSAN1; iL, MV4-11 lysate, log10 M -5): 0.5058
relative binding vs DMSO (ELMSAN1; [4]): 0.6836
relative binding vs DMSO (ELMSAN1; iL, MV4-11 lysate, log10 M -6): 0.7193
relative binding vs DMSO (ELMSAN1; [5]): 0.7931
relative binding vs DMSO (ELMSAN1; iL, MV4-11 lysate, log10 M -7): 0.9008
relative binding vs DMSO (ELMSAN1; [6]): 0
relative binding vs DMSO (ELMSAN1; iQ, SW620 lysate, log10 M -4): 0
relative binding vs DMSO (ELMSAN1; [7]): 0.1474
relative binding vs DMSO (ELMSAN1; iQ, SW620 lysate, log10 M -5): 0.6579
relative binding vs DMSO (ELMSAN1; [8]): 0.8569
relative binding vs DMSO (ELMSAN1; iQ, SW620 lysate, log10 M -6): 0.8861
relative binding vs DMSO (ELMSAN1; [9]): 0.626
relative binding vs DMSO (ELMSAN1; iQ, SW620 lysate, log10 M -7): 0.8038
relative binding vs DMSO (DNTTIP1; [2]): 0.05556
relative binding vs DMSO (DNTTIP1; iL, MV4-11 lysate, log10 M -4): 0.04853
relative binding vs DMSO (DNTTIP1; [3]): 0.1384
relative binding vs DMSO (DNTTIP1; iL, MV4-11 lysate, log10 M -5): 0.4584
relative binding vs DMSO (DNTTIP1; [4]): 0.6943
relative binding vs DMSO (DNTTIP1; iL, MV4-11 lysate, log10 M -6): 0.6679
relative binding vs DMSO (DNTTIP1; [5]): 0.7085
relative binding vs DMSO (DNTTIP1; iL, MV4-11 lysate, log10 M -7): 0.9632
relative binding vs DMSO (DNTTIP1; [6]): 0.382
relative binding vs DMSO (DNTTIP1; iQ, SW620 lysate, log10 M -4): 0.3895
relative binding vs DMSO (DNTTIP1; [7]): 0.5292
relative binding vs DMSO (DNTTIP1; iQ, SW620 lysate, log10 M -5): 0.6889
relative binding vs DMSO (DNTTIP1; [8]): 0.738
relative binding vs DMSO (DNTTIP1; iQ, SW620 lysate, log10 M -6): 0.858
relative binding vs DMSO (DNTTIP1; [9]): 0.8975
relative binding vs DMSO (DNTTIP1; iQ, SW620 lysate, log10 M -7): 0.8297
EC50 (HDAC3/NcoR2 complex; read-out: log EC50 from dose-dependent HDAC inhibition curves (converted)): 15.6 µM
HDCA3 relative activity (HDAC3/NcoR2 complex; log conc -3.30103): 69.6623 and 70.4079 and 69.1097
HDCA3 relative activity (HDAC3/NcoR2 complex; log conc -3.82945): 75.2589 and 76.6842 and 75.5671
HDCA3 relative activity (HDAC3/NcoR2 complex; log conc -4.35788): 87.3214 and 88.0897 and 87.877
HDCA3 relative activity (HDAC3/NcoR2 complex; log conc -4.88629): 91.0887 and 91.1636 and 92.3406
HDCA3 relative activity (HDAC3/NcoR2 complex; log conc -5.41477): 88.6242 and 91.0601 and 91.2237
HDCA3 relative activity (HDAC3/NcoR2 complex; log conc -5.94309): 95.2751 and 94.3928 and 97.2335
HDCA3 relative activity (HDAC3/NcoR2 complex; log conc -6.47756): 90.1183 and 90.3135 and 93.1985
HDCA3 relative activity (HDAC3/NcoR2 complex; log conc -6.87615): 107.529 and 106.868 and 106.288
Kd [1]: 3 to 33 µM
relative binding vs DMSO (MIER1; log10 M -3.52288): 0.1808
relative binding vs DMSO (MIER1; log10 M -4): 0
relative binding vs DMSO (MIER1; log10 M -4.52288): 0.3328
relative binding vs DMSO (MIER1; log10 M -5): 0.7626
relative binding vs DMSO (MIER1; log10 M -5.52288): 0.9557
relative binding vs DMSO (MIER1; log10 M -6): 1.104
relative binding vs DMSO (MIER1; log10 M -6.52288): 0.974
relative binding vs DMSO (MIER1; log10 M -7): 1.319
SMILES: NC(=O)CCCCC1CCSS1 (racemic) [(R/S)-LM, (R/S)-lipoamide]

— paper PMC10272112 (Nature Communications, 2023)
